# Target: T1, histamine H4 receptor (Homo sapiens, UniProt Q9H3N8)
# T1 construct: expressed in transfected cells; host or cells: HEK293SFM cells (membrane preparation)
# Assay: H4 Membrane Binding Assay (3H-Histamine displacement)
# Conditions: membranes of recombinant HEK293SFM cells, 10 nM 3H-Histamine, 1.5 hr at room temperature
# Summary of the method: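 Radioligand is [3H]-histamine; 1000× unlabeled ligand sets nonspecific binding. Receptor source: membrane pellets from HEK293SFM cells carrying human H4 or other histamine subtypes (human H1–H3, mouse H4), in 50 mM Tris-HCl pH 7.5. Filtration through PEI-treated GF/B filters, then scintillation counting.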
row,IC50,Compound
1,66 nM,"CC(C)OC(=O)N1CCC(CC(=O)N2CCc3ccc(-c4cc(N5CCN(C)CC5)nc(N)n4)cc3C2)CC1 [Example 71, Isopropyl 4-{2-[7-[2-amino-6-(4-methylpiperazin-1-yl)pyrimidin-4-yl]-3,4-dihydroisoquinolin-2(1H)-yl]-2-oxoethyl}piperidine-1-carboxylate]"
2,44 nM,"CN1CCN(c2nc(N)nc3cc(C(=O)NC(Cc4ccc(C(F)(F)F)cc4)C(=O)N(C)C)ccc23)CC1 (centres unmarked) [Example 150, 2-Amino-N-{2-(dimethylamino)-2-oxo-1-[4-(trifluoromethyl)benzyl]ethyl}-4-(4-methylpiperazin-1-yl)quinazoline-7-carboxamide]"
3,8.4 nM,"CCOC(=O)c1sc(Oc2cccc(CNC(=O)c3ccc4c(N5CCN(C)CC5)nc(N)nc4c3)c2)nc1C [Example 185, Ethyl 2-{3-[({[2-amino-4-(4-methylpiperazin-1-yl)quinazolin-7-yl]carbonyl}amino)methyl]phenoxy}-4-methyl-1,3-thiazole-5-carboxylate]"
4,186 nM,"CN1CCN(c2cc(-c3ccc4c(c3)CN(C(=O)c3cccc(Cl)c3)CC4)nc(N)n2)CC1 [Example 39, 4-[2-(3-Chlorobenzoyl)-1,2,3,4-tetrahydroisoquinolin-7-yl]-6-(4-methylpiperazin-1-yl)pyrimidin-2-amine]"
5,11 nM,"COc1cccc(Oc2cccc(CNC(=O)c3ccc4c(N5CCN(C)CC5)nc(N)nc4c3)c2)c1C#N [Example 190, 2-Amino-N-[3-(2-cyano-3-methoxyphenoxy)benzyl]-4-(4-methylpiperazin-1-yl)quinazoline-7-carboxamide]"

# Reference: patent US8481732B2 (Incyte Corporation, priority 2009, dated 2013)
